The text below walks through data of patent US7141562B2, “Substituted benzoxazinones and uses thereof” (Roche Palo Alto LLC, priority 2002, dated 2006).

Data set [1] addresses T1, recombinant human 5-HT6 receptor (Homo sapiens, UniProt P50406).
T1 construct: expressed in transfected cells; cell membranes used
Put plainly: Radioligand binding: competition for [3H]LSD binding in membranes of HEK293 cells expressing the receptor. To be noted: [3H]LSD (5 nM), HEK293 cell membranes, 60 min at 37° C., pH 7.4, duplicate determinations. The method, then: The binding activity of compounds of this invention in vitro was determined as follows. Duplicate determinations of ligand affinity are made by competing for binding of [^3H]LSD in cell membranes derived from HEK293 cells stably expressing recombinant human 5-HT6 receptor.
All determinations were made in assay buffer containing 50 mM Tris-HCl, 10 mM MgSO4, 0.5 mM EDTA, 1 mM ascorbic acid, pH 7.4 at 37° C., in a 250 microliter reaction volume. Assay tubes containing [^3H] LSD (5 nM), competing ligand, and membrane were incubated in a shaking water bath for 60 min. at 37° C., filtered onto Packard GF-B plates (presoaked with 0.3% PEI) using a Packard 96 well cell harvester and washed 3 times in ice cold 50 mM Tris-HCl. Bound [^3H] LSD was determined as radioactive counts per minute using Packard TopCount.
Displacement of [3H]LSD from the binding sites was quantified by fitting concentration-binding data to a 4-parameter logistic equation:
[formula] where Hill is the Hill slope, [ligand] is the concentration of competing radioligand and IC50 is the concentration of radioligand producing half-maximal specific binding of radioligand. The specific binding window is the difference between the Bmax and the basal parameters.

Counter-ions that a name gives are not always drawn.

T1 sequence (P50406 whole entry): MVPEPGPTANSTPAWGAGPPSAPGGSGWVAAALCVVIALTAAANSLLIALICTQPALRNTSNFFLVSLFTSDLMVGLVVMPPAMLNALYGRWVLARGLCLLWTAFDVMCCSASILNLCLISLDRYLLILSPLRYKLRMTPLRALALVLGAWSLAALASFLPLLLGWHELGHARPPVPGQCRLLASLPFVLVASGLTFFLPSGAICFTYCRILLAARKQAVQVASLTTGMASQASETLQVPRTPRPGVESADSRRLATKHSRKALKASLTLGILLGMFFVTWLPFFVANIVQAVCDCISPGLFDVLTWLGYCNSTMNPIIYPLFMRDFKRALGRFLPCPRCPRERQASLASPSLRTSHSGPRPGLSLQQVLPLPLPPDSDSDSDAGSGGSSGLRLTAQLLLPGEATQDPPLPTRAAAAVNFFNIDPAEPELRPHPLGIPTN

The melting point is the temperature of the solid-liquid transition. `COc1cc(N2CCNCC2)c2c(c1)N(Cc1cccc(Cl)c1)C(=O)CO2` (as salt: hydrochloride) yielded a melting point of 55.2 to 58.8 °C. `O=C1COc2c(N3CCNCC3)cccc2N1Cc1ccccc1` (as salt: hydrochloride) came in with a melting point of 250.9 to 253.8 °C.

As a reminder, the Ki is the dissociation constant of the complex between target and ligand, obtained from inhibition or displacement. Consider `O=C1COc2c(N3CCNCC3)cc(F)cc2N1Cc1ccccc1F` [4-(2-fluoro-benzyl)-6-fluoro-8-piperazin-1-yl-4H-benzo[1,4]oxazin-3-one], for which, in data set [1], the Ki was 0.676 nM. On the same count and under the same terms, next, `O=C1COc2c(N3CCNCC3)cccc2N1Cc1ccccc1F` [4-(2-fluoro-benzyl)-8-piperazin-1-yl-4H-benzo[1,4]oxazin-3-one]: 0.912 nM; `CC1(C)Oc2c(N3CCNCC3)cccc2N(Cc2cccc(Cl)c2)C1=O` [4-(3-Chloro-benzyl)-2,2-dimethyl-8-piperazin-1-yl-4H-benzo[1,4]oxazin-3-one]: 0.759 nM. Still for that read-out and setting: next, `CC1(C)Oc2c(N3CCNCC3)cccc2N(Cc2ccccc2)C1=O` [4-Benzyl-2,2-dimethyl-8-piperazin-1-yl-4H-benzo[1,4]oxazin-3-one]: 0.741 nM; `C[C@@H]1Oc2c(N3CCNCC3)cccc2N(Cc2ccccc2)C1=O` [(S)-4-Benzyl-2-methyl-8-piperazin-1-yl-4H-benzo[1,4]oxazin-3-one]: 0.759 nM.
